Our source for the IC50 values is US20060025414A1, “Poly-heterocyclic compounds and their use as metabotropic glutamate receptor antagonists” (AstraZeneca AB, priority 2004, published 2006).

This experiment addresses T1, human mGluR5d (Homo sapiens, UniProt P41594).
T1 construct: expressed in transfected cells
The experiment can be described thus: FLIPR assay of [Ca2+]i mobilization (Group I receptor antagonist activity). It counts as cell-based. As to conditions: cells expressing human mGluR5d; antagonist block of agonist challenge. The method, then:
For FLIPR analysis, cells expressing human mGluR5d as described in WO97/05252 were seeded on collagen coated clear bottom 96-well plates with black sides and analysis of [Ca^2+]i mobilization was done 24 h after seeding.
FLIPR experiments were done using a laser setting of 0.800 W and a 0.4 second CCD camera shutter speed. Each FLIPR experiment was initiated with 160 μl of buffer present in each well of the cell plate. After each addition of the compound, the fluorescence signal was sampled 50 times at 1 second intervals followed by 3 samples at 5 second intervals. Responses were measured as the peak height of the response within the sample period. EC50 and IC50 determinations were made from data obtained from 8-point concentration response curves (CRC) performed in duplicate. Agonist CRC were generated by scaling all responses to the maximal response observed for the plate. […]
FLIPR experiments were done using a laser setting of 0.800 W and a 0.4 second CCD camera shutter speed with excitation and emission wavelengths of 488 nm and 562 nm, respectively. […] After each addition the fluorescence signal was sampled 50 times at 1 second intervals followed by 3 samples at 5 second intervals. Responses were measured as the peak height of the response within the sample period. […]

T1 sequence (P41594 21-942 isoform P41594-3 limits assumed): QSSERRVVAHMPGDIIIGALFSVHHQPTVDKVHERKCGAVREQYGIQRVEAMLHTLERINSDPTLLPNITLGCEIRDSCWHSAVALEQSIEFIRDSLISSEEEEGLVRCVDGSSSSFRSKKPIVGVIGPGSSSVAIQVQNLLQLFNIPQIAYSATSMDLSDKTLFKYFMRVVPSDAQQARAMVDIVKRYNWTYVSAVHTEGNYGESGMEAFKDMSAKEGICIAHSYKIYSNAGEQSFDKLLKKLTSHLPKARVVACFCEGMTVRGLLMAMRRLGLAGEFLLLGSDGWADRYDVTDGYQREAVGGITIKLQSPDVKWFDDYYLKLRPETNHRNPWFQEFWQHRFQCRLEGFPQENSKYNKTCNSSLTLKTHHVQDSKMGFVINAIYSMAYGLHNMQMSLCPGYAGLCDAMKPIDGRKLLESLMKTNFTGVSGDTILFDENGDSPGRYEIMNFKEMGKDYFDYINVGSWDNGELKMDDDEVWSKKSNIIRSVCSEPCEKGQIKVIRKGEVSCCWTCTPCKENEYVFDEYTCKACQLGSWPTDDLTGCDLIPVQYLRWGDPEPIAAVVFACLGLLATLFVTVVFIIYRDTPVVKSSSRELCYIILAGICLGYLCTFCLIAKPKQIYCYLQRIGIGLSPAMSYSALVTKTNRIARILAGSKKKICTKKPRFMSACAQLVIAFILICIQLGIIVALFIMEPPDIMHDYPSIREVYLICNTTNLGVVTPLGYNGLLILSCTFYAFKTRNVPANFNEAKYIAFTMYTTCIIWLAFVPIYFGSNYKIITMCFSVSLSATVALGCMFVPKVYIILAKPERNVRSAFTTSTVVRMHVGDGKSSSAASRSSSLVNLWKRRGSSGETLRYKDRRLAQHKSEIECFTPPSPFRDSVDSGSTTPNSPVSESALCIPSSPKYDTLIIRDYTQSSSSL

In turn, `Cn1c(-c2ccc(OC(F)F)cc2)nnc1N1CCOCC1c1nc(-c2cccc(Cl)c2)no1` (centres unmarked) [3-[3-(3-Chloro-phenyl)-[1,2,4]oxadiazol-5-yl]-4-[5-(4-difluoromethoxy-phenyl)-4-methyl-4H-[1,2,4]triazol-3-yl]-morpholine] yielded an IC50 of 199 nM.

Molecule `Cn1c(-c2ccncc2)nnc1N1CCCCC1c1nnn(-c2cccc(Cl)c2)n1` (centres unmarked) [4-(5-{2-[2-(3-chlorophenyl)-2H-tetrazol-5-yl]piperidin-1-yl}-4-methyl-4H-1,2,4-triazol-3-yl)pyridine] gave an IC50 of 40 nM. This IC50 is about 5-fold lower than that of the molecule before.

Broadly, the IC50 is the concentration that gives 50% inhibition. Higher therefore signals weaker potency in that assay.
